“Also recorded” adds a separate entry of the source.
What was measured:
Format in all cases: cell-based, human
mRNA TYR = test: qRT-PCR mRNA expression of TYR; conditions: MNT-1 cells, 50 nM mimetic, day 12, relative to cel-miR-239b, ΔΔCt
Experimental: 4×10^5 MNT-1 cells were seeded per well in a 6-well plate (#353046, Falcon) on day-1. On day 0, the cells were transfected with 50 nM of mimetic of the miRNAs (hsa-mir-137 # C-300604-07-005, hsa-mir-7 # C-300547-05-0005, hsa-mir-330-5p # C-301082-01-0005, negative control # NC-002000-01-05, Dharmacon), using 5 μL of Lipofectamine 2000 (#1668-019, Invitrogen). On day 1, the medium was changed. On day 3, the cells were trypsinized and seeded at 4×10^5 cells per well. On day 4, the cells were transfected again with 50 nM of mimetic of the miRNAs (see day 0). On day 5, the medium was changed. On day 7, the cells were trypsinized and seeded at 4×10^5 cells per well. On day 8, the cells were transfected with 50 nM of mimetic of the miRNAs (see day 0). On day 9, the medium was changed. On day 10, the cells were trypsinized and divided into two (from one by six wells to two by six wells). On day 12, one six-well plate was used for lysis of the RNA and the other for lysis of the proteins. As positive control of depigmentation, MNT-1 cells were incubated with 3.5 mM of kojic acid (Sigma K3125-5G) for 12 days. The cells were distributed as described and the kojic acid was renewed with the medium every 4 days. The percentage inhibition of the kojic acid is of the order of 10%. 700 μL of Qiazol lysis buffer (Qiagen) was added per well of a six-well dish after washing the cells twice with PBS. The total RNA was isolated using the miRNeasy Mini kit (Qiagen) according to the manufacturer's protocol. The total RNA was eluted in 30 μl of water without RNAse. The concentration of RNA was measured using the NanoVue spectrophotometer (GE Healthcare). 1 μg of total RNA was reverse-transcribed using the MLV RT-Enzyme system (Invitrogen) in 60 μL of reaction to produce the corresponding cDNA. Real-time PCR was performed using the IQTM SYBR® Green supermix (Biorad) (final reaction volume of 25 μL: 23 μL of Mix Master and 2 μL of cDNA). The thermocycling conditions ([…], Biorad) were as follows: 95° C. for 90 s, and 40 cycles at 95° C. for 30 s, 60° C. for 60 s and 95° C. for 10 s. The concentrations of primers and the sequences are given in Table 5 below: The relative quantity was evaluated using the ΔΔCt comparative method. Briefly, this method compares the quantity of expression of the target gene relative to an endogenous control TBP, within a sample for normalizing the expression. Within a group of samples, a suitable sample is selected as the calibrator sample ([…]). Each sample is then compared with a designated reference to give the relative expression of the target gene relative to this reference sample.

MNT-1 cells [1] = test: Measurement of the relative melanin concentration (absorbance at 470 nm of protein lysates); conditions: 50 nM mimetic, day 12, relative to transfection control cel-miR-239b (miCtrl), normalized to protein
Experimental: (§1) 4×10^5 MNT-1 cells were seeded per well in a 6-well plate (#353046, Falcon) on day-1. On day 0, the cells were transfected with 50 nM of mimetic of the miRNAs (hsa-mir-137 # C-300604-07-005, hsa-mir-7 # C-300547-05-0005, hsa-mir-330-5p # C-301082-01-0005, negative control # NC-002000-01-05, Dharmacon), using 5 μL of Lipofectamine 2000 (#1668-019, Invitrogen). On day 1, the medium was changed. On day 3, the cells were trypsinized and seeded at 4×10^5 cells per well. On day 4, the cells were transfected again with 50 nM of mimetic of the miRNAs (see day 0). On day 5, the medium was changed. On day 7, the cells were trypsinized and seeded at 4×10^5 cells per well. On day 8, the cells were transfected with 50 nM of mimetic of the miRNAs (see day 0). On day 9, the medium was changed. On day 10, the cells were trypsinized and divided into two (from one by six wells to two by six wells). On day 12, one six-well plate was used for lysis of the RNA and the other for lysis of the proteins. As positive control of depigmentation, MNT-1 cells were incubated with 3.5 mM of kojic acid (Sigma K3125-5G) for 12 days. The cells were distributed as described and the kojic acid was renewed with the medium every 4 days. The percentage inhibition of the kojic acid is of the order of 10%.
On day 12, the cells were washed in PBS twice and lysed in 75 μL/well of a 6-well dish of lysis buffer for the RIPA proteins. The protein lysates were transferred to 1.5-ml Eppendorf tubes and vortexed lightly to homogenize the solution before putting the tube on ice or for storage at −80° C. 2 μL of protein lysate was used for measuring the absorbance of the melanin at 470 nm using the NanoVue spectrophotometer (GE Healthcare). The protein lysate of the unpigmented XB2 keratinocytes was used as calibrator sample (reference=0). To detect the relative quantity of melanin, all the samples were compared with the transfection control sample (miCtrl). The absorbance at 470 nm of the sample miCtrl was fixed at 1 as reference. In addition, the melanin absorption at 470 nm was normalized taking into account the concentration of proteins of each sample relative to miCtrl.

MNT-1 cells [2] = test: Overall pigmentation levels (photographs of protein lysates on day 12); conditions: 50 nM mimetic, 12 days, relative to negative control, photographs not shown
Experimental: as §1, with “10%. […] The XB2 keratinocytes serve as control for the unpigmented cells. […] As positive control of depigmentation, the MNT-1 cells were treated with kojic acid.” for “10%.”

| Substance | levels of mRNA TYR (mRNA TYR) | levels of mRNA TYR (mRNA TYR; listed as miR-7) | relative levels of melanin (absorbance at 470 nm) (MNT-1 cells [1]) | overall pigmentation levels (MNT-1 cells [2]) | overall pigmentation levels (MNT-1 cells [2]; listed as miR-7) |
| --- | --- | --- | --- | --- | --- |
| hsa-miR-7: mimetic of miRNA hsa-mir-7 (Dharmacon C-300547-05-0005); mature hsa-miR-7-5p sequence SEQ ID NO: 2 (UGGAAGACUAGUGAUUUUGUUGU; commercial mimic, chemistry not given here; listed as Homo sapiens) | decreased | appears to reduce | slight increase | do not show a significant reduction | do not show any significant effect |
| hsa-miR-137: mimetic of miRNA hsa-mir-137 (Dharmacon C-300604-07-005); mature sequence SEQ ID NO: 3 (UUAUUGCUUAAGAAUACGCGUAG; commercial mimic, chemistry not given here; listed as Homo sapiens) | decreased; also recorded: significantly reduced | – | reduction; also recorded: decrease in melanin | significant reduction | – |
| hsa-miR-330-5p: mimetic of miRNA hsa-mir-330-5p (Dharmacon C-301082-01-0005); mature sequence 5'-UCUCUGGGCCUGUGUCUUAGGC-3' (SEQ ID NO: 1) (UCUCUGGGCCUGUGUCUUAGGC; mimic duplex, passenger strand not given here; listed as Homo sapiens) | decreased; also recorded: appears to reduce | – | reduction; also recorded: decrease in melanin | significant reduction | – |
